Source: US8273701B2, “Method for diagnosing non-small cell lung carcinoma” (Trustees of Dartmouth College, priority 2005, dated 2012)

Experiments:
HOP62 [1] = conditions: HOP62 transfected with Gli1 (efficiency approximately 25%) compared with HOP62 expressing an insertless expression vector
Text: Results from DTP analysis of the NCI-60 screen were independently validated with each cell line to determine which NSCLC cell lines required Hedgehog activity to proliferate.

786-0 = experiment: NCI-60 panel screen, growth inhibition; format: cell-based, human; conditions: Renal
Text: (§1) The NCI-60 panel of cell lines includes cells derived from melanoma, leukemia, and cancers of the lung, central nervous system, kidney, ovary, colon, breast and prostate. Advantageously, the NCI-60 panel has been screened with a plurality of compounds with the drug concentration resulting in 50% growth inhibition (GI50 determined for each cell line, so that a distinct “fingerprint” signature has been created for each small-molecule tested. Further, DNA microarray analyses have been performed on the NCI-60 panel, allowing for gene expression profile comparisons between drug-sensitive cell lines and drug-insensitive cell lines in response to a particular agent.
(§2) Results from the NCI-60 panel screen highlighted the important role that the Hedgehog pathway plays in breast and prostate cancer (Table 1). […] These findings underscore the broad importance of Hedgehog signaling in carcinogenesis.

A549 = experiment: NCI-60 panel screen, growth inhibition; format: cell-based, human; conditions: NSCLC
Text: as §1, §2

ACHN = experiment: NCI-60 panel screen, growth inhibition; format: cell-based, human; conditions: Renal
Text: as §1, §2

BT-549 = experiment: NCI-60 panel screen, growth inhibition; format: cell-based, human; conditions: Breast
Text: as §1, §2

CAKI-1 = experiment: NCI-60 panel screen, growth inhibition; format: cell-based, human; conditions: Renal
Text: as §1, §2

COLO 205 = experiment: NCI-60 panel screen, growth inhibition; format: cell-based, human; conditions: Colon
Text: as §1, §2

DU-145 = experiment: NCI-60 panel screen, growth inhibition; format: cell-based, human; conditions: Prostate
Text: as §1, §2

EKVX = experiment: NCI-60 panel screen, growth inhibition; format: cell-based, human; conditions: NSCLC
Text: as §1, §2

HCT-116 = experiment: NCI-60 panel screen, growth inhibition; format: cell-based, human; conditions: Colon
Text: as §1, §2

HCT-15 = experiment: NCI-60 panel screen, growth inhibition; format: cell-based, human; conditions: Colon
Text: as §1, §2

HL-60 = experiment: NCI-60 panel screen, growth inhibition; format: cell-based, human; conditions: Leukemia
Text: as §1, §2

HOP62 [2] = experiment: NCI-60 panel screen, growth inhibition; format: cell-based, human; conditions: NSCLC
Text: as §1, §2

HS 578T = experiment: NCI-60 panel screen, growth inhibition; format: cell-based, human; conditions: Breast
Text: as §1, §2

HT29 = experiment: NCI-60 panel screen, growth inhibition; format: cell-based, human; conditions: Colon
Text: as §1, §2

IGROV1 = experiment: NCI-60 panel screen, growth inhibition; format: cell-based, human; conditions: Ovarian
Text: as §1, §2

K-562 = experiment: NCI-60 panel screen, growth inhibition; format: cell-based, human; conditions: Leukemia
Text: as §1, §2

KM12 = experiment: NCI-60 panel screen, growth inhibition; format: cell-based, human; conditions: Colon
Text: as §1, §2

LOX IMVI = experiment: NCI-60 panel screen, growth inhibition; format: cell-based, human; conditions: Melanoma
Text: as §1, §2

MCF7 = experiment: NCI-60 panel screen, growth inhibition; format: cell-based, human; conditions: Breast
Text: as §1, §2

MDA MB-435 = experiment: NCI-60 panel screen, growth inhibition; format: cell-based, human; conditions: Breast
Text: as §1, §2

MDA-MB-231/ATCC = experiment: NCI-60 panel screen, growth inhibition; format: cell-based, human; conditions: Breast
Text: as §1, §2

MOLT-4 = experiment: NCI-60 panel screen, growth inhibition; format: cell-based, human; conditions: Leukemia
Text: as §1, §2

NCI-H226 = experiment: NCI-60 panel screen, growth inhibition; format: cell-based, human; conditions: NSCLC
Text: as §1, §2

NCI-H23 = experiment: NCI-60 panel screen, growth inhibition; format: cell-based, human; conditions: NSCLC
Text: as §1, §2

NCI-H322M = experiment: NCI-60 panel screen, growth inhibition; format: cell-based, human; conditions: NSCLC
Text: as §1, §2

NCI-H460 = experiment: NCI-60 panel screen, growth inhibition; format: cell-based, human; conditions: NSCLC
Text: as §1, §2

NCI-H522 = experiment: NCI-60 panel screen, growth inhibition; format: cell-based, human; conditions: NSCLC
Text: as §1, §2

NCI/ADR-RES = experiment: NCI-60 panel screen, growth inhibition; format: cell-based, human; conditions: Breast
Text: as §1, §2

OVCAR-5 = experiment: NCI-60 panel screen, growth inhibition; format: cell-based, human; conditions: Ovarian
Text: as §1, §2

OVCAR-8 = experiment: NCI-60 panel screen, growth inhibition; format: cell-based, human; conditions: Ovarian
Text: as §1, §2

PC-3 = experiment: NCI-60 panel screen, growth inhibition; format: cell-based, human; conditions: Prostate
Text: as §1, §2

RPMI-8226 = experiment: NCI-60 panel screen, growth inhibition; format: cell-based, human; conditions: Leukemia
Text: as §1, §2

RXF 393 = experiment: NCI-60 panel screen, growth inhibition; format: cell-based, human; conditions: Renal
Text: as §1, §2

SF-268 = experiment: NCI-60 panel screen, growth inhibition; format: cell-based, human; conditions: Central Nervous System
Text: as §1, §2

SF-295 = experiment: NCI-60 panel screen, growth inhibition; format: cell-based, human; conditions: Central Nervous System
Text: as §1, §2

SF-539 = experiment: NCI-60 panel screen, growth inhibition; format: cell-based, human; conditions: Central Nervous System
Text: as §1, §2

SK-MEL-28 = experiment: NCI-60 panel screen, growth inhibition; format: cell-based, human; conditions: Melanoma
Text: as §1, §2

SK-MEL-2 = experiment: NCI-60 panel screen, growth inhibition; format: cell-based, human; conditions: Melanoma
Text: as §1, §2

SK-MEL-5 = experiment: NCI-60 panel screen, growth inhibition; format: cell-based, human; conditions: Melanoma
Text: as §1, §2

SN12C = experiment: NCI-60 panel screen, growth inhibition; format: cell-based, human; conditions: Renal
Text: as §1, §2

SNB-19 = experiment: NCI-60 panel screen, growth inhibition; format: cell-based, human; conditions: Central Nervous System
Text: as §1, §2

SNB-75 = experiment: NCI-60 panel screen, growth inhibition; format: cell-based, human; conditions: Central Nervous System
Text: as §1, §2

SR = experiment: NCI-60 panel screen, growth inhibition; format: cell-based, human; conditions: Leukemia
Text: as §1, §2

SW-620 = experiment: NCI-60 panel screen, growth inhibition; format: cell-based, human; conditions: Colon
Text: as §1, §2

TK-10 = experiment: NCI-60 panel screen, growth inhibition; format: cell-based, human; conditions: Renal
Text: as §1, §2

U251 = experiment: NCI-60 panel screen, growth inhibition; format: cell-based, human; conditions: Central Nervous System
Text: as §1, §2

UACC-257 = experiment: NCI-60 panel screen, growth inhibition; format: cell-based, human; conditions: Melanoma
Text: as §1, §2

UACC-62 = experiment: NCI-60 panel screen, growth inhibition; format: cell-based, human; conditions: Melanoma
Text: as §1, §2

UO-31 = experiment: NCI-60 panel screen, growth inhibition; format: cell-based, human; conditions: Renal
Text: as §1, §2

Gli1 = Gli1 knock-down by siRNA in A549 cells; format: cell-based, human; conditions: A549 cells transfected with siRNA

CC1=C2C[C@H]3[C@@H](CC=C4C[C@@H](O)CC[C@@]43C)[C@@H]2CC[C@]12O[C@@H]1C[C@H](C)CN[C@H]1[C@H]2C [Cyclopamine, cyclopamine]
Growth inhibitory activity in Gli1-transfected cells versus insertless expression vector (HOP62 [1]): less growth inhibitory activity

Cc1nn(-c2ccccc2)c(C)c1/C=N/N1CCN(Cc2ccccc2)CC1 [SANT1]
−log [GI50] (786-0): 4.64 | −log [GI50] (A549): 4.00 | −log [GI50] (ACHN): 4.28 | −log [GI50] (BT-549): 4.32 | −log [GI50] (CAKI-1): 4.00 | −log [GI50] (COLO 205): 4.39 | −log [GI50] (DU-145): 4.02 | −log [GI50] (EKVX): 4.00 | −log [GI50] (HCT-116): 4.55 | −log [GI50] (HCT-15): 4.52 | −log [GI50] (HL-60): 4.54 | −log [GI50] (HOP62 [2]): 4.79 | −log [GI50] (HS 578T): 4.00 | −log [GI50] (HT29): 4.37 | −log [GI50] (IGROV1): 5.08 | −log [GI50] (K-562): 4.51 | −log [GI50] (KM12): 4.50 | −log [GI50] (LOX IMVI): 4.36 | −log [GI50] (MCF7): 4.51 | −log [GI50] (MDA MB-435): 4.00 | −log [GI50] (MDA-MB-231/ATCC): 4.65 | −log [GI50] (MOLT-4): 4.57 | −log [GI50] (NCI-H226): 4.56 | −log [GI50] (NCI-H23): 4.38 | −log [GI50] (NCI-H322M): 5.08 | −log [GI50] (NCI-H460): 4.47 | −log [GI50] (NCI-H522): 4.11 | −log [GI50] (NCI/ADR-RES): 4.30 | −log [GI50] (OVCAR-5): 4.00 | −log [GI50] (OVCAR-8): 4.00 | −log [GI50] (PC-3): 4.60 | −log [GI50] (RPMI-8226): 4.70 | −log [GI50] (RXF 393): 4.00 | −log [GI50] (SF-268): 4.42 | −log [GI50] (SF-295): 4.00 | −log [GI50] (SF-539): 4.12 | −log [GI50] (SK-MEL-28): 4.09 | −log [GI50] (SK-MEL-2): 4.22 | −log [GI50] (SK-MEL-5): 4.73 | −log [GI50] (SN12C): 4.00 | −log [GI50] (SNB-19): 4.00 | −log [GI50] (SNB-75): 4.00 | −log [GI50] (SR): 4.86 | −log [GI50] (SW-620): 4.00 | −log [GI50] (TK-10): 4.54 | −log [GI50] (U251): 4.17 | −log [GI50] (UACC-257): 4.20 | −log [GI50] (UACC-62): 4.47 | −log [GI50] (UO-31): 4.18

SEQ ID NO:9: siRNA having the desired Gli1 knock-down activity (Sanchez, et al. (2004)) (AACUCCACAGGCAUACAGGAU; chemistry not given here)
Reduction of Gli1 levels (Gli1): approximately 90%
